Test results taken from patent publication US9326520B2, “Pest repellent comprising geranylacetone” (The University Court of the University of Aberdeen, priority 2006, dated 2016).
Values joined by “and” are separate entries in the source; they are usually repeats but may differ in a detail not shown here. Equal values may be shown once. “Also recorded” adds a separate entry of the source.

Legend:
Ae. aegypti = details: H. D. Douglas et al. J. Med. Entomol. 42(4): 647-651 (2005); cited from earlier work
C. impunctatus midges = test: Field trial of repellency (WHO protocol), compounds on stockings worn on forearms of volunteers; type: in vivo, Culicoides impunctatus; details: for repellency compared with DEET at 1%: over 1 min, single compounds at 1%
Method: FIG. 6. Repellency of EAG-active human-derived compounds applied to the forearms of volunteers and tested on Culicoides impuctatus midges in the field. a) over 1 minute and b) over 5 minutes.
A field trial was made in the Ormsary estate, Argyllshire, during the summer 2005 in a region with an extremely high natural population of C. impunctatus. […] Compounds were applied to (nylon) stockings and worn on the forearms of volunteers and were tested at three concentrations in ethanol (1%, 0.01% and 0.0001%). All compounds and mixtures were compared against the WHO approved repellent diethyltoluamide (DEET) (1% and 40%).

Culex quinquefasciatus = test: Laboratory-based repellency test, treated forearm in cage, protective efficacy (PE); type: in vivo; details: for Mean % P.E ± S.E: landings over 3 min
Method: (§1) The mosquitoes were laboratory-reared using standard conditions at ICIPE, Duduville. 5-7 day old female mosquitoes that had been starved for 18 h but previously fed on 6% glucose solution were used. Eighteen cages (50×50×50 cm) were used with 25 female mosquitoes in each. Six human volunteers with no or little allergic reaction to bites were selected. Test solutions (0.5 ml in acetone) were applied to a volunteer's forearms and the hand was covered with a glove. Acetone alone (0.5 ml) served as a control on the other arm. The control arm was inserted into a cage and the number of landings were recorded over 3 min. The treated arm was then inserted as above. Repellency data was expressed as protective efficacy (PE) and was calculated by using the formula PE=(% control mean−% test mean/% control mean). The data were transformed and subjected to an ANOVA.
(§2) Each compound was tested at concentrations ranging from 0.0001% to 10%. […]

Anopheles gambiae = test: as above; type: in vivo; details: An. gambiae, landings over 3 min
Method: as §1, §2

[1] = test system: Aedes aegypti host-seeking female mosquitoes; test: Y-tube olfactometer: response of mosquitoes to hand of attractive volunteer with and without chemical; type: in vivo
Source text: FIG. 5. […] (−1=1×10^−1 g μL^−1; −2=1×10^−2 g μL^−1, etc). Back transformed means+95% confidence intervals (calculated for a binomial distribution) from the logistic scale are shown.
A convenient bioassay was established following work by Geier et al. (1999)^17 using a Y-tube olfactometer in which mosquitoes, Ae. aegypti, could “choose” between volatile skin emanations and air alone, the “choice” being expressed as flight activity or relative attraction. Initially, the source of skin emanations was from individual hands of a series of human volunteers.
These compounds (from Sigma Aldrich) were tested individually at different concentrations in the olfactometer against Ae. aegypti. The upwind flight activity, relative attraction and probing activity (feeding) of the mosquitoes to the hand of an attractive volunteer with and without the chemicals was recorded.

[2] = hand of attractive volunteer with chemical vs without, data not shown

Structure (SMILES): CCCCCCCC=O [octanal]
- repellent for Ae. aegypti (described previously) (Ae. aegypti): described previously as a repellent

Structure (SMILES): CC(=O)CCC=C(C)C [6-methyl-5-hepten-2-one, 6-Methyl-5-hepten-2-one]
- repellency (C. impunctatus midges; 1 min time, 0.001%): significantly repellent
- repellency (C. impunctatus midges; 1 min time, 0.01%): not repellent
- repellency (C. impunctatus midges; 1 min time, 1%): strongly repellent
- repellency compared with DEET at 1% (C. impunctatus midges): more effective than DEET; also recorded: significantly greater than DEET at 1%
- repellency (C. impunctatus midges; over 5 min): repellent only at 1%
- Mean % P.E ± S.E (Culex quinquefasciatus; 0.0001 % Conc. in acetone): 8.0%
- Mean % P.E ± S.E (Culex quinquefasciatus; 0.001 % Conc. in acetone): 12.7%
- Mean % P.E ± S.E (Culex quinquefasciatus; 0.01 % Conc. in acetone): 21.8%
- Mean % P.E ± S.E (Culex quinquefasciatus; 0.1 % Conc. in acetone): 30.1%
- Mean % P.E ± S.E (Culex quinquefasciatus; 1 % Conc. in acetone): 49.7 ± 2.9%
- Mean % P.E ± S.E (Culex quinquefasciatus; 10 % Conc. in acetone): 100.0 ± 0%
- Mean % P.E ± S.E (Anopheles gambiae; 0.0001 % Conc. in acetone): 0.85 ± 3.9%
- Mean % P.E ± S.E (Anopheles gambiae; 0.001 % Conc. in acetone): 1.57 ± 11.2%
- Mean % P.E ± S.E (Anopheles gambiae; 0.01 % Conc. in acetone): 19.2 ± 5.5%
- Mean % P.E ± S.E (Anopheles gambiae; 0.1 % Conc. in acetone): 34.07 ± 6.6%
- Mean % P.E ± S.E (Anopheles gambiae; 1 % Conc. in acetone): 35.73 ± 8.7%
- Mean % P.E ± S.E (Anopheles gambiae; 10 % Conc. in acetone): 74.75 ± 6.1%

Structure (SMILES): CCN(CC)C(=O)c1cccc(C)c1 [DEET, diethyltoluamide, reference compound]
- Mean % P.E ± S.E (Culex quinquefasciatus; 0.001 % Conc. in acetone): 7.6 ± 1.8%
- Mean % P.E ± S.E (Culex quinquefasciatus; 0.01 % Conc. in acetone): 12.0 ± 1.7%
- Mean % P.E ± S.E (Culex quinquefasciatus; 0.1 % Conc. in acetone): 76.9 ± 5.4%
- Mean % P.E ± S.E (Culex quinquefasciatus; 1 % Conc. in acetone): 98.2 ± 1.1%
- Mean % P.E ± S.E (Culex quinquefasciatus; 10 % Conc. in acetone): 100% and 100 ± 0%
- Mean % P.E ± S.E (Anopheles gambiae; 0.001 % Conc. in acetone): 6.23 ± 1.7%
- Mean % P.E ± S.E (Anopheles gambiae; 0.01 % Conc. in acetone): 20% and 20.65 ± 6.4%
- Mean % P.E ± S.E (Anopheles gambiae; 0.1 % Conc. in acetone): 83% and 83.78 ± 3.9%
- Mean % P.E ± S.E (Anopheles gambiae; 1 % Conc. in acetone): 100% and 100 ± 0%
- Mean % P.E ± S.E (Anopheles gambiae; 10 % Conc. in acetone): 100% and 100 ± 0%

Structure (SMILES): CC(=O)CCC=C(C)CCC=C(C)C [geranylacetone, 6,10-dimethyl-5,9-undecadien-2-one]
- probing activity (feeding) [1, 2]: significantly reduced
- relative attraction [1, 2]: caused a reduction in relative attraction
- repellency (C. impunctatus midges; all concentrations tested (1%, 0.01% and 0.0001% in ethanol)): effective at all concentrations tested
- % repellency compared with DEET (C. impunctatus midges; full 5 min testing period, single compound at 1%): higher % repellency than DEET; these differences were not significant
- repellency compared with DEET at 1% (C. impunctatus midges): significantly greater than DEET at 1%
- Mean % P.E ± S.E (Culex quinquefasciatus; 0.0001 % Conc. in acetone): 4.8%
- Mean % P.E ± S.E (Culex quinquefasciatus; 0.001 % Conc. in acetone): 10%
- Mean % P.E ± S.E (Culex quinquefasciatus; 0.01 % Conc. in acetone): 23.7%
- Mean % P.E ± S.E (Culex quinquefasciatus; 0.1 % Conc. in acetone): 33.2 ± 4.5%
- Mean % P.E ± S.E (Culex quinquefasciatus; 1 % Conc. in acetone): 84.1 ± 4.2%
- Mean % P.E ± S.E (Culex quinquefasciatus; 10 % Conc. in acetone): 100 ± 0%
- Mean % P.E ± S.E (Culex quinquefasciatus; 10 % Conc. in acetone, listed as Geranylacetone): 100%
- Mean % P.E ± S.E (Anopheles gambiae; 0.001 % Conc. in acetone): 7.25 ± 9.5%
- Mean % P.E ± S.E (Anopheles gambiae; 0.01 % Conc. in acetone): 11.17 ± 12.9%
- Mean % P.E ± S.E (Anopheles gambiae; 0.1 % Conc. in acetone): 30.13 ± 11%
- Mean % P.E ± S.E (Anopheles gambiae; 1 % Conc. in acetone): 76.97 ± 5.9%
- Mean % P.E ± S.E (Anopheles gambiae; 10 % Conc. in acetone): 100%
- Mean % P.E ± S.E (Anopheles gambiae; 10 % Conc. in acetone, listed as geranylacetonedecanal): 100 ± 0%

Structure (SMILES): CCCCCCCCC=O [nonanal]
- flight activity compared with the untreated hand ([1]; at only one dose): significantly greater flight activity than the untreated hand

Structure (SMILES): CCCCCCCCCC=O [decanal]
- ranking of treatments (repellency) (Culex quinquefasciatus): most effective treatment
